Test: Particle size analysis of brinzolamide precipitated after autoclaving
Format: physicochemical
Conditions: precipitated during cooling after autoclaving, before size reduction
Text: The precipitated brinzolamide is preferably in partially amorphous or crystalline form, preferably in crystalline form, more preferably in highly crystalline form. The particles are preferably in the form of fine particles. More preferably the fine particulate has an average particle size of less than 100 μm, more preferably less than 50 μm. The particle size can be reduced further by sonication to an average particle size less than […], more preferably less than 30 pm or 20 pm. Any method can be used to determine particle size distribution. One preferred method is to use a light scattering or Coulter counter method. It is preferred that 90% of the particles (D(0.9)) be less than 15 pm, more preferably, D(0.9) is in the range of 10-15 pm. It is preferred that 100% of the particles (D(1)) be less than 30 pm, more preferably less than about 20 pm.
During autoclaving due to high temperature and pressure, brinzolamide goes in solution. Upon completion of the autoclave cycle, during cooling, brinzolamide starts precipitating out. Brinzolamide forms needle shaped crystals of 1000 to 3000 microns. These needle shaped crystals of brinzolamide are further reduced in fine crystalline form to be used in the present invention formulation and the reduced particle size is as per table 3.
This particle size is further reduced to […] through rapid cooling with stirring. […]

CCN[C@H]1CN(CCCOC)S(=O)(=O)c2sc(S(N)(=O)=O)cc21 [API, (R)-(+)-4-ethylamino-2-(3-methoxypropyl)-3,4-dihydro-2H-thieno[3,2-e]-1,2-thiazine-6-sulfonamide-1,1-dioxide]
size of needle shaped crystals: 1000 to 3000 microns

— US20150297609A1, “STERILE OPHTHALMIC PHARMACEUTICAL SUSPENSIONS” (SENTISS PHARMA PVT. LTD., priority 2012, published 2015)
